In ChEMBL document CHEMBL3991601, “The target landscape of clinical kinase drugs” (Science, 2017):
Activity calls are given as the source filed them.

What was measured:
Aurora kinase B = Aurora kinase B (Homo sapiens, UniProt Q96GD4)
[1] = target: Cyclin-dependent kinase 4 (Homo sapiens, UniProt P11802)
[2] = target: T1, NUAK family SNF1-like kinase 2 (Homo sapiens, UniProt Q9H093)
T1 sequence (Q9H093 whole entry): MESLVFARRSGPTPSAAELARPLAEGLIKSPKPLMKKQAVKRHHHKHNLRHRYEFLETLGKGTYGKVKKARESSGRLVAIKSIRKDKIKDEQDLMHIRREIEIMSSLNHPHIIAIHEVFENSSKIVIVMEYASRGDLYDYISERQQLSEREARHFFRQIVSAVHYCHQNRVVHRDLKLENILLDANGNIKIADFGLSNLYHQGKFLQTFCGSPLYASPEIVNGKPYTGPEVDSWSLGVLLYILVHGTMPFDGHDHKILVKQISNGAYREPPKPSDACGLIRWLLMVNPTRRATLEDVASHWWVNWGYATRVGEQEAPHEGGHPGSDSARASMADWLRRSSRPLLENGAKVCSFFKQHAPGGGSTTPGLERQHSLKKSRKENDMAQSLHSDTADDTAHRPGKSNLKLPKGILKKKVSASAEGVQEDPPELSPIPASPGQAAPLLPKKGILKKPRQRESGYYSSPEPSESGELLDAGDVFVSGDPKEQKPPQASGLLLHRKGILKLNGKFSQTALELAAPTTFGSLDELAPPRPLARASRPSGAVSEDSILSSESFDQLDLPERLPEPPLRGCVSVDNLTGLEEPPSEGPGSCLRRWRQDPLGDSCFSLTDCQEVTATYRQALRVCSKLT

[3] = target: Serine/threonine-protein kinase N2 (Homo sapiens, UniProt Q16513)
Sequence of Serine/threonine-protein kinase N2 (Q16513 whole entry): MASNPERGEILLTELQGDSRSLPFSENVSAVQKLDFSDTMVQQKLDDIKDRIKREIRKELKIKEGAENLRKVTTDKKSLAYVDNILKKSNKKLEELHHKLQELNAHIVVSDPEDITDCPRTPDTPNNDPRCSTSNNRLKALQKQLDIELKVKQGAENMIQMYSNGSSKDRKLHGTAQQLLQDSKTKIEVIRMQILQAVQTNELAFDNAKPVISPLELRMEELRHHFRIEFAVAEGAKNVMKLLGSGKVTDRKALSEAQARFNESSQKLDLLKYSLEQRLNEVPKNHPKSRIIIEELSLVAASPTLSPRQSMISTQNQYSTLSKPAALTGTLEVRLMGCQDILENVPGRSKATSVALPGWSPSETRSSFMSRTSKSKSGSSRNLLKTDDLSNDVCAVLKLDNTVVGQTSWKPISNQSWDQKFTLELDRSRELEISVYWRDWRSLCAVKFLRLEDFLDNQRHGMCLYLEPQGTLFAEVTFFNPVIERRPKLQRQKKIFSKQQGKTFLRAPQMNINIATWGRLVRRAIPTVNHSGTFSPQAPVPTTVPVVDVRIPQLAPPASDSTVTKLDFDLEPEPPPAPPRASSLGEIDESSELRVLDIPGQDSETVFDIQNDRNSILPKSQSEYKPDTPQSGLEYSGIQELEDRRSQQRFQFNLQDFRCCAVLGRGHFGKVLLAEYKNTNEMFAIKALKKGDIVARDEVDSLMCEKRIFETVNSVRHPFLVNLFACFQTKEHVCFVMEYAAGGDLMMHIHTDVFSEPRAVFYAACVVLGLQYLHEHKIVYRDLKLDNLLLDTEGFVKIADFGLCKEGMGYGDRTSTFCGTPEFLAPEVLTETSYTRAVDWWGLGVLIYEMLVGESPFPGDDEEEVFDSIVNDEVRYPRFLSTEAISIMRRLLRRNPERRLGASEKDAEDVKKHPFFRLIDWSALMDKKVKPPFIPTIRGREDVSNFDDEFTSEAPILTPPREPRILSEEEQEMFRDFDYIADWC

[4] = target: T2, Serine/threonine-protein kinase D3 (Homo sapiens, UniProt O94806)
T2 sequence (O94806 whole entry): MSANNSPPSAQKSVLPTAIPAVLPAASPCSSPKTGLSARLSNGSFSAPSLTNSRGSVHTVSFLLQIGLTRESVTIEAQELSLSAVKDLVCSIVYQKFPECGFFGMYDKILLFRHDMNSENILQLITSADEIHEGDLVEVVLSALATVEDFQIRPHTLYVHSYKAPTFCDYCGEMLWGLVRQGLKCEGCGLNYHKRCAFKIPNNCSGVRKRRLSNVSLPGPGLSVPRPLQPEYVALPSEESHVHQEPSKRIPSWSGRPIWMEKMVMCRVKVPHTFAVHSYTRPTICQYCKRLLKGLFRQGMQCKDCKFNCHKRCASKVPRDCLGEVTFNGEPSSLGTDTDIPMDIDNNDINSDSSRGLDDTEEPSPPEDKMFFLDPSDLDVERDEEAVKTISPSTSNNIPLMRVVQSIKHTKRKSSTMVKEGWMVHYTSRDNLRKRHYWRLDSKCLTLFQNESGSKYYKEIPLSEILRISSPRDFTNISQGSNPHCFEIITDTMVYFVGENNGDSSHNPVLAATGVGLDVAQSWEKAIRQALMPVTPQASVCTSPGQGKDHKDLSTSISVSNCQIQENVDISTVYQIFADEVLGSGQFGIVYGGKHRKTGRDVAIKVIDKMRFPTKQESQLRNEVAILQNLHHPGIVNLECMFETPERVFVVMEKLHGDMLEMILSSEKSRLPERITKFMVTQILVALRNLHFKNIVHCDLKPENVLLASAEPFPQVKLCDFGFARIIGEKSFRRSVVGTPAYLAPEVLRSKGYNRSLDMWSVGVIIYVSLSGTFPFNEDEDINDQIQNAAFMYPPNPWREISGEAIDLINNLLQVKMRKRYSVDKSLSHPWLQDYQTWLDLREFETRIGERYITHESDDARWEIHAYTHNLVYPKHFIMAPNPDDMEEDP

[5] = target: T3, STE20-related kinase adapter protein alpha (Homo sapiens, UniProt Q7RTN6)
T3 sequence (Q7RTN6 whole entry): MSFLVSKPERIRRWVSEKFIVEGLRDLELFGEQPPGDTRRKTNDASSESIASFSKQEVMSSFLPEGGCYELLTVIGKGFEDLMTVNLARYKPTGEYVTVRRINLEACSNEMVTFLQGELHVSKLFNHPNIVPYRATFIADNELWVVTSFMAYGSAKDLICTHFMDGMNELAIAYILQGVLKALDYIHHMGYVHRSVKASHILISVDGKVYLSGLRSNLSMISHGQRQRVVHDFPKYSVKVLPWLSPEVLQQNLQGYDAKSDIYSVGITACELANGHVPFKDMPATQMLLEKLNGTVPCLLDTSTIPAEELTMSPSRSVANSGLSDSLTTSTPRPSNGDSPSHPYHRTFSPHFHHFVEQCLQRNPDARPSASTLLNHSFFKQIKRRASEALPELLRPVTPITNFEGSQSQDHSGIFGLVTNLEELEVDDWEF

[6] = target: T4, Tyrosine--tRNA ligase, cytoplasmic (Homo sapiens, UniProt P54577)
T4 sequence (P54577 whole entry): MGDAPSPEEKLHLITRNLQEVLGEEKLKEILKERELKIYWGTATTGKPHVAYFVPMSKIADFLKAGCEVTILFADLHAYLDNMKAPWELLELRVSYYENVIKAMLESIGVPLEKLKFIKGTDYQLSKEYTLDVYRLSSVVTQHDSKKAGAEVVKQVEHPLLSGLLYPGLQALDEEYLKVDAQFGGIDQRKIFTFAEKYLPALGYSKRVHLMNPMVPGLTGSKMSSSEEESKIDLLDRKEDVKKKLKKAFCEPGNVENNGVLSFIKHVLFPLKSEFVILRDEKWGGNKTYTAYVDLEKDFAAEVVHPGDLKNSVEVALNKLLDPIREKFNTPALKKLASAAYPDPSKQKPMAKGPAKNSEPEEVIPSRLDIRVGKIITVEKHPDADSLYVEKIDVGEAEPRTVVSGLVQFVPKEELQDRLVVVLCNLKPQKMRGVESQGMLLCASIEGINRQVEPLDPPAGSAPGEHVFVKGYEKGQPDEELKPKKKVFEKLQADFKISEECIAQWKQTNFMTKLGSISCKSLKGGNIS
Also: in the data inactive means no Kd found up to 30 µM.

Sequence of Cyclin-dependent kinase 4 (P11802 whole entry): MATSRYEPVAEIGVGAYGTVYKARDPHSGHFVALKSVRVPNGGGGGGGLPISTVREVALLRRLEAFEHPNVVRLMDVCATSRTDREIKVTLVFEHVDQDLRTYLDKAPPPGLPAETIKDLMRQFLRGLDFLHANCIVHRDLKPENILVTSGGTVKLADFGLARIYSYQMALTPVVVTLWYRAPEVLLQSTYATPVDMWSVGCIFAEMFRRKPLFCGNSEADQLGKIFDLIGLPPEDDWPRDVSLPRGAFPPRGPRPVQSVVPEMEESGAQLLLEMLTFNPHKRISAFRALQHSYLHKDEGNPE
Sequence of Aurora kinase B (Q96GD4 whole entry): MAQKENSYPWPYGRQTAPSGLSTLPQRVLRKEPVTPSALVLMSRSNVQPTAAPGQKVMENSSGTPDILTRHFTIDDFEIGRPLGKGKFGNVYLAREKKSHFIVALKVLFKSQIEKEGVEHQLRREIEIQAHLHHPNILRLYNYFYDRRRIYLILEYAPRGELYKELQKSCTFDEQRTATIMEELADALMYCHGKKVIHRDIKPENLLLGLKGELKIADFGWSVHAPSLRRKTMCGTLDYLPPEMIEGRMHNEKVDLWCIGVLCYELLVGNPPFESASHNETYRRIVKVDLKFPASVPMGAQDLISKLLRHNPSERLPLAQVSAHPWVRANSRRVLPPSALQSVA

SMILES: Cc1ccc(S(=O)(=O)Nc2nc3ccccc3nc2Nc2ccc3nsnc3c2)cc1
- Kd (Aurora kinase B): > 30 µM (inactive)
- Kd [1]: > 30 µM (inactive)
- Kd [2]: > 30 µM (inactive)
- Kd [3]: > 30 µM (inactive)
- Kd [4]: > 30 µM (inactive)
- Kd [5]: > 30 µM (inactive)
- Kd [6]: > 30 µM (inactive)

SMILES: COc1cc2nccc(Oc3ccc(NC(=O)NC4CC4)c(Cl)c3)c2cc1C(N)=O [LENVATINIB]
- Kd (Aurora kinase B): 1.78 µM (active)
- Kd [1]: > 30 µM (inactive)
- Kd [2]: > 30 µM (inactive)
- Kd [3]: > 30 µM (inactive)
- Kd [4]: > 30 µM (inactive)
- Kd [5]: > 30 µM (inactive)
- Kd [6]: > 30 µM (inactive)

SMILES: COC(=O)N[C@@H](C)CNc1nccc(-c2cn(C(C)C)nc2-c2cc(Cl)cc(NS(C)(=O)=O)c2F)n1 [ENCORAFENIB]
- Kd (Aurora kinase B): > 30 µM (inactive)
- Kd [1]: 0.112 µM (active)
- Kd [2]: > 30 µM (inactive)
- Kd [3]: > 30 µM (inactive)
- Kd [4]: > 30 µM (inactive)
- Kd [5]: > 30 µM (inactive)
- Kd [6]: > 30 µM (inactive)

SMILES: COCCNCc1ccc(-c2cc3nccc(Oc4ccc(NC(=S)NC(=O)Cc5ccc(F)cc5)cc4F)c3s2)nc1 [GLESATINIB]
- Kd (Aurora kinase B): > 30 µM (inactive)
- Kd [1]: > 30 µM (inactive)
- Kd [2]: > 30 µM (inactive)
- Kd [3]: > 30 µM (inactive)
- Kd [4]: > 30 µM (inactive)
- Kd [5]: > 30 µM (inactive)
- Kd [6]: > 30 µM (inactive)

SMILES: Cc1c(F)cc(C(=O)NC2CC2)cc1-c1ccc(C(=O)NCC(C)(C)C)cn1 [LOSMAPIMOD]
- Kd (Aurora kinase B): > 30 µM (inactive)
- Kd [1]: > 30 µM (inactive)
- Kd [2]: > 30 µM (inactive)
- Kd [3]: > 30 µM (inactive)
- Kd [4]: > 30 µM (inactive)
- Kd [5]: > 30 µM (inactive)
- Kd [6]: > 30 µM (inactive)

SMILES: CO[C@H]1C[C@@H]2CC[C@@H](C)[C@@](O)(O2)C(=O)C(=O)N2CCCC[C@H]2C(=O)O[C@H]([C@H](C)C[C@@H]2CC[C@@H](OCCO)[C@H](OC)C2)CC(=O)[C@H](C)/C=C(\C)[C@@H](O)[C@@H](OC)C(=O)[C@H](C)C[C@H](C)/C=C/C=C/C=C/1C [EVEROLIMUS]
- Kd (Aurora kinase B): > 30 µM (inactive)
- Kd [1]: > 30 µM (inactive)
- Kd [2]: > 30 µM (inactive)
- Kd [3]: > 30 µM (inactive)
- Kd [4]: > 30 µM (inactive)
- Kd [5]: > 30 µM (inactive)
- Kd [6]: > 30 µM (inactive)

SMILES: CCN1CCN(Cc2ccc(-c3cc4c(N[C@H](C)c5ccccc5)ncnc4[nH]3)cc2)CC1 [AEE-788]
- Kd (Aurora kinase B): > 30 µM (inactive)
- Kd [1]: > 30 µM (inactive)
- Kd [2]: > 30 µM (inactive)
- Kd [3]: > 30 µM (inactive)
- Kd [4]: > 30 µM (inactive)
- Kd [5]: > 30 µM (inactive)
- Kd [6]: > 30 µM (inactive)

SMILES: CC(=O)Nc1cccc(-n2c(=O)n(C3CC3)c(=O)c3c(Nc4ccc(I)cc4F)n(C)c(=O)c(C)c32)c1 [TRAMETINIB]
- Kd (Aurora kinase B): > 30 µM (inactive)
- Kd [1]: > 30 µM (inactive)
- Kd [2]: > 30 µM (inactive)
- Kd [3]: > 30 µM (inactive)
- Kd [4]: > 30 µM (inactive)
- Kd [5]: > 30 µM (inactive)
- Kd [6]: > 30 µM (inactive)

SMILES: C1=C/COCc2cc(ccc2OCCN2CCCC2)Nc2nccc(n2)-c2cccc(c2)COC/1 [PACRITINIB]
- Kd (Aurora kinase B): 0.641 µM (active)
- Kd [1]: > 30 µM (inactive)
- Kd [2]: > 30 µM (inactive)
- Kd [3]: > 30 µM (inactive)
- Kd [4]: > 30 µM (inactive)
- Kd [5]: > 30 µM (inactive)
- Kd [6]: > 30 µM (inactive)

SMILES: N[C@@H]1CCCN(c2c(/C=C3\SC(=O)NC3=O)cccc2-c2ccccc2)C1
- Kd (Aurora kinase B): > 30 µM (inactive)
- Kd [1]: > 30 µM (inactive)
- Kd [2]: > 30 µM (inactive)
- Kd [3]: > 30 µM (inactive)
- Kd [4]: > 30 µM (inactive)
- Kd [5]: > 30 µM (inactive)
- Kd [6]: > 30 µM (inactive)

SMILES: Cc1ccc(NC(=O)c2ccc(CN3CC[C@H](N(C)C)C3)c(C(F)(F)F)c2)cc1Nc1nccc(-c2cncnc2)n1 [BAFETINIB]
- Kd (Aurora kinase B): > 30 µM (inactive)
- Kd [1]: > 30 µM (inactive)
- Kd [2]: > 30 µM (inactive)
- Kd [3]: > 30 µM (inactive)
- Kd [4]: > 30 µM (inactive)
- Kd [5]: > 30 µM (inactive)
- Kd [6]: > 30 µM (inactive)

SMILES: O=C(Nc1ccc(-c2ccnc(Nc3ccc(N4CCOCC4)cc3)n2)cc1)C1CCCN1 (centres undefined) [XL-019]
- Kd (Aurora kinase B): > 30 µM (inactive)
- Kd [1]: > 30 µM (inactive)
- Kd [2]: > 30 µM (inactive)
- Kd [3]: > 30 µM (inactive)
- Kd [4]: 2.96 µM (active)
- Kd [5]: > 30 µM (inactive)
- Kd [6]: > 30 µM (inactive)
